The text below walks through data of US20100184809A1, “Heterocyclic FXR Binding Compounds” (PHENEX PHARMACEUTICALS AG, priority 2006, published 2010).

The term Papp A→B denotes the apparent permeability from the apical to the basolateral side of a cell layer. Low values mean slow passage, high ones fast passage. In general, fraction unbound refers to the share of the substance not bound to proteins or other matrix.

A short description of one series: PAMPA permeability assay. It counts as in vitro ADME. The conditions noted are these: % of compound found in the receiver compartment after 16 hours; PBS pH 7.4, 5% DMSO, 23° C. On the procedure:
Artificial membrane permeability was determined as follows: Tested compounds were dissolved to 10 mM in 100% DMSO. Permeability of compounds was measured in PBS (pH 7.4), 5% DMSO at 23° C. Safire (Tecan) plate reader was used for measurement the UV/Vis absorption. Protocol: Dilute stocks of tested compounds and controls with PBS to 1.67 mM and mix well by pipeitting, add 280 μl of PBS, 5% DMSO to acceptor plate, add 5 μl of 2% L-α-Phosphatidylcholine suspension in dodecane to the membrane of donor plate, Immediately add 98 μl of PBS to donor plate and make the sandwich with acceptor plate. Add 42 μl of tested compounds and controls dilutions to […], cover the plate, place into camera and incubate for 16 hours. Make the equilibrium plate, add 225 μl of PBS, 3,7% DMSO and 25 μl of tested compounds and controls dilutions to UV plate. After 16 hours pull the donor plate out and transfer 250 μl from acceptor plate to UV plate. Scan UV plate on Safire (Tecan) plate reader from […]. Permeability is reported in % of compound found in the receiver compartment after the incubation period.
Background: The PAMPA barrier holds no transporters, so it reflects passive diffusion.

Series [1] is described as follows: Human microsomal stability assay. It counts as in vitro ADME. The following applies: liver microsomes, 0.5 mg microsomal protein/ml, 10 μM compound, 37° C., read-out: Human liver microsome clearance. The protocol: Compound stability towards human liver microsomes was determined as follows: Human liver microsomal suspension (1 ml) prepared in reaction buffer at a concentration of 0.5 mg microsomal protein/ml was preincubated for 3 min at 37° C. with a NADPH-generating system (10 mM glucose 6-phosphate, 1 mM NADP+, and 1 unit/ml yeast glucose-6-phosphate dehydrogenase). The final compounds concentration is 10 μM. Boiled microsomes (5 min) served as a control. Samples (50 μl) were then taken after 0, 5, 15, 30, 45, 120 min, into 200 μl acetonitrile, centrifuged for 15 min at 8000×g to remove the protein pellet. Samples were analyzed for parent compound by HPLC. Method development: All samples for metabolic stability experiments were analyzed by HPLC. Only parent compounds were analyzed. Data analysis: The percentages of the parent compounds remaining was defined as the ratio of the parent compounds peak area at a specific point and the peak area at the first time point multiplied by 100%. The metabolic stability was evaluated by plotting the natural logarithm of the percentage parent compounds remaining versus time and performing linear regression and finally reported as clearance [μl/min/mg protein] which is reversed proportional to compound stability. Applying this protocol, Microsomal stability of examples and reference compounds was determined. (Table 7)
On the technique in general: Liver microsomes are vesicles of endoplasmic reticulum, rich in cytochrome P450 enzymes.

A short description of series [2]: Pharmacokinetic parameters in C57BL/6 mice (plasma concentration after peroral gavage). The conditions noted are these: mouse, oral, perorally by gavage 10 mg/kg, male C57BL/6 mice, read-out: mean plasma conc. It counts as in vivo. The protocol: (§1) Information on the rate and extent of absorption of the test compounds were generated using two distinct animal models, C57/BI/6J and C57/BLKS/J(mLepr^db/db) mice. Compounds were applied perorally by gavage at 10 mg/kg each to male 8 weeks old C57BL/6 mice and plasma concentrations of the test items were determined by LC-MS/MS (Table 11). Alternatively, compounds were applied perorally by gavage at 25 mg/kg each to 16 weeks old male C57/BLKS/J(mLepr^db/db) mice and plasma concentrations of the test items were determined 120 min after gavage by LC-MS/MS (Table 12).
(§2) A solution of 20 mg/ml of each test item was produced by diluting them in the vehicle, 30% HPBCD (hydroxypropyl-beta-cyclodextrin) in 20 mM phosphate buffer pH7.0 (v/w). These solutions were stirred overnight at room temperature and heated to 60° C. for 10 minutes, resulting in a full solubilization. The application was performed by administrating the solution perorally to the mice, with an application volume of 10 ml/kg. For each time point five mice were used. Blood samples were obtained by sacrificing animals for each time point followed by cardiac puncture. Blood samples were treated with Li-heparin during collection procedure and stored on ice until centrifugation at 645 g (5 min, 4° C.). Plasma was harvested and kept at −20° C. until being assayed. To 50 μl of mouse plasma sample 6 μl acetonitrile containing an internal standard was added. Samples were vigorously shaken and centrifuged for 10 minutes at 6000 g and 20° C. An aliquot of the particle-free supernatant was transferred to 200 μl sampler vials and subsequently subjected to LC MS/MS for quantification.

Series [3] in a line: Pharmacokinetic parameters in C57/BLKS/J(mLepr^db/db) mice (plasma concentration after peroral gavage). It counts as in vivo. The following applies: mouse, oral, perorally by gavage 25 mg/kg, male C57/BLKS/J(mLepr^db/db) mice, read-out: mean plasma conc. The protocol:
as §1
as §2, with “Blood samples were treated with Li-heparin during collection procedure and stored on ice until centrifugation at 645 g (5 min, 4° C.). Plasma was harvested and kept at −20° C. until being assayed. To 50 μl of mouse plasma sample 6 μl acetonitrile containing an internal standard was added. Samples were vigorously shaken and centrifuged for 10 minutes at 6000 g and 20° C.” left out

Another series is described as follows: Caco-2 permeability. It counts as in vitro ADME. The following applies: human, apical to basolateral. The protocol:
Caco-2 cells are widely used as an in vitro model for predicting human drug absorption. The Caco-2 cell line is derived from a human colorectal carcinoma, and when cultured, the cells spontaneously differentiate into monolayers of polarised enterocytes. The cells are seeded on Transwell™ plates and form a confluent monolayer over 20 days prior to the experiment. On day 20, the test compound is added to the apical side of the membrane and the transport of the compound across the monolayer is monitored over a 2 hour time period. To study drug efflux, it is also necessary to investigate transport of the compound from the basolateral compartment to the apical compartment. The permeability coefficient (Papp) is calculated from the following equation: […]
Where dQ/dt is the rate of permeation of the drug across the cells, CO is the donor compartment concentration at time zero and A is the area of the cell monolayer.

Series [4] in a line: Plasma protein binding assay (equilibrium dialysis). It counts as in vitro ADME. The following applies: 37° C., extrapolated fraction unbound. The protocol:
Equilibrium dialysis is used to determine the extent of binding of a compound to plasma proteins. A semi-permeable membrane separates a protein-containing compartment from a protein-free compartment. The system is allowed to equilibrate at 37° C. The test compound present in each compartment is quantified by LC-MS/MS. The extent of binding is reported as a fraction unbound (fu) value which is calculated as fu=1−(PC−PF)/PC. PC=Test compound concentration in protein-containing compartment. PF=Test compound concentration in protein-free compartment. In addition to using whole plasma, the plasma protein binding assay can be performed using two other ratios of plasma (10% or 50% plasma in buffer v/v). The following equations are used to convert from a fraction unbound at 10% or 50% to a fraction unbound at 100%: […]

Take `CC(C)c1onc(-c2c(Cl)cccc2Cl)c1COc1ccc(/C=C/c2cccc(C(=O)O)c2)c(Cl)c1` [Compound B, reference compound]: in “PAMPA permeability assay”, the “PAMPA Permeability” value is on record as 7%. For the same molecule, the microsomal CLint at 10 μM in series [1] was 100 µL/min/mg. Also, in series [2], the concentration at 15 min was found to be 1600 ng/mL and the concentration at 45 min was determined as 1650 ng/mL. In addition, the concentration at 120 min in series [3] came out at 164 ng/mL.
With `Cc1nc(OCc2c(-c3c(Cl)cccc3Cl)noc2C(C)C)ccc1N(C)S(=O)(=O)c1ccc(C(=O)O)cc1` [Example 4, 4-(N-(6-((3-(2,6-dichlorophenyl)-5-isopropylisoxazol-4-yl)methoxy)-2-methylpyridin-3-yl)—N-methylsulfamoyl)benzoic acid], in the series “PAMPA permeability assay”, the “PAMPA Permeability” value is recorded as 50%. Also, the Papp A→B at 2 h in the series “Caco-2 permeability” stood at 30 ×10⁻⁶ cm/s. Further, the fraction unbound in series [4] is 0.0003. For the same molecule, the microsomal CLint at 10 μM in series [1] came out at 62 µL/min/mg.
In turn, `CC(C)c1onc(-c2c(Cl)cccc2Cl)c1COc1ccc(N(C)C(=O)c2ccc(C(=O)O)cc2)c(C(F)(F)F)n1` [Example 7, N-{6-[3-(2,6-dichloro-phenyl)-5-isopropyl-isoxazol-4-ylmethoxy]-2-trifluoromethyl-pyridin-3-yl}-N-methyl-terephthalamic acid] came in with a Papp A→B at 2 h in the series “Caco-2 permeability” of 32 ×10⁻⁶ cm/s. In series [4], the fraction unbound is 0.005. In addition, in series [1], the microsomal CLint at 10 μM is 14 µL/min/mg.
For the molecule `CC(C)c1onc(-c2c(Cl)cccc2Cl)c1COc1ccc(N(C)Cc2ccc(C(=O)O)cc2)c(C(F)(F)F)n1` [Example 28, 4(((6-((3-(2,6-Dichlorophenyl)-5-isopropylisoxazol-4-yl)methoxy)-2-(trifluoromethyl)pyridin-3-yl)(methyl)amino)methyl)benzoic acid], in series [2], the concentration at 15 min turned out to be 1780 ng/mL and the concentration at 45 min turned out to be 2230 ng/mL. Further, the concentration at 120 min in series [3] turned out to be 287 ng/mL.
